According to patent US20260092076A1, “NOVEL COMPOUNDS” (Hoffmann-La Roche Inc., priority 2023, published 2026):

How the values were obtained:
NLRP3 [1] = biological target: T1, NLRP3 (Homo sapiens, UniProt Q96P20); test: THP-1 cells pyroptosis assay; format: cell-based; parameters: Seed THP-1 cells (25,000 cells/well) containing 1.0 μg/ml LPS in 40 μl of RPMI medium; host or cells: THP-1 cells, LPS-primed, nigericin-stimulated; details: THP-1 cells with 1.0 μg/ml LPS, compound 3 hours, nigericin 5 μM 1 hr, resazurin readout
T1 sequence (Q96P20 whole entry): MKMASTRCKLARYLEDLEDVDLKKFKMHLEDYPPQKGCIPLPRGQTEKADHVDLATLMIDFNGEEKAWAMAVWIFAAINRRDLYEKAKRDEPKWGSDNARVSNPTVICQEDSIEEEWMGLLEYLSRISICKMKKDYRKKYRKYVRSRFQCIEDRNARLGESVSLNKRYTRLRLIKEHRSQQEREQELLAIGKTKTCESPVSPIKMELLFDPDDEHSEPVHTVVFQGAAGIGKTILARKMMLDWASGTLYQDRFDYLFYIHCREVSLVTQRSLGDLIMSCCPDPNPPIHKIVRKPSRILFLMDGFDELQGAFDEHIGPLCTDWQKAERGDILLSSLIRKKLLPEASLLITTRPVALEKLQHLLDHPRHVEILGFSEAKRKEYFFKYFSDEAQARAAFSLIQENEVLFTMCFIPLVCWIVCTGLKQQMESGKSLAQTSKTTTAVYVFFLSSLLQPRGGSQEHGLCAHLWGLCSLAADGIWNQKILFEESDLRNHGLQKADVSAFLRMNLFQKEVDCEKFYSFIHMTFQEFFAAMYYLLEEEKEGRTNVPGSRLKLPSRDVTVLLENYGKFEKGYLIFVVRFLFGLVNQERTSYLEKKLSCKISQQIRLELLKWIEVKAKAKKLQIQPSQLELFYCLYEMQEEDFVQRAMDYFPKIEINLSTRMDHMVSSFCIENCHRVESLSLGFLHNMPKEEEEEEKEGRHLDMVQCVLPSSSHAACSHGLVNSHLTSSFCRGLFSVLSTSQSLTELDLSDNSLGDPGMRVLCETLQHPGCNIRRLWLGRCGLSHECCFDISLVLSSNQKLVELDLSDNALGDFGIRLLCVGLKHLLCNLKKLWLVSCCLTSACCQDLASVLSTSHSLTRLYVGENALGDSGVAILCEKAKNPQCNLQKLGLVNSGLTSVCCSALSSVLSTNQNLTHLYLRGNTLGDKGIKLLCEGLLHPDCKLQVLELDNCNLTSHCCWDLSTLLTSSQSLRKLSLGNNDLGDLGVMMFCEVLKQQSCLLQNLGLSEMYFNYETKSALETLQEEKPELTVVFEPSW
Procedure: THP-1 cells (ATCC #TIB-202) were grown in RPMI containing L-glutamine (Gibco #11835) supplemented with 1 mM sodium pyruvate (Sigma #S8636) and penicillin (100 units/ml)/streptomycin (0.1 mg/ml) (Sigma #P4333) in 10% Fetal Bovine Serum (FBS) (Sigma #F0804). The cells were routinely passaged and grown to confluency (˜10^6 cells/ml). On the day of the experiment, THP-1 cells were harvested and resuspended into RPMI medium (without FBS). The cells were then counted and viability (>90%) checked by Trypan blue (Sigma #T8154). Appropriate dilutions were made to give a concentration of 625,000 cells/ml. To this diluted cell solution was added LPS (Sigma #L4524) to give a 1 μg/ml Final Assay Concentration (FAC). 40 μl of the final preparation was aliquoted into each well of a 96-well plate. The plate thus prepared was used for compound screening.
The following method step-by-step assay was followed for compound screening. • Seed THP-1 cells (25,000 cells/well) containing 1.0 μg/ml LPS in 40 μl of RPMI medium (without FBS) in 96-well, black walled, clear bottom cell culture plates coated with poly-D-lysine (VWR #734-0317) • Add 5 μl compound (8 points half-log dilution, with 10 μM top dose) or vehicle (DMSO 0.1% FAC) to the appropriate wells • Incubate for 3 hours at 37° C., 5% CO2 • Add 5 μl nigericin (Sigma #N7143) (FAC 5 μM) to all wells • Incubate for 1 hr at 37° C., 5% CO2 • At the end of the incubation period, spin plates at 300×g for 3 mins and remove supernatant • Then add 50 μl of resazurin (Sigma #R7017) (FAC 100 μM resazurin in RPMI medium without FBS) and incubate plates for a further 1-2 hours at 37° C. and 5% CO2 • Plates were read in an Envision reader at Ex 560 nm and Em 590 nm • IC50 data is fitted to a non-linear regression equation (log inhibitor vs response-variable slope 4-parameters)

NLRP3 [2] = biological target: T1, NLRP3; test: Human whole blood IL-1β release assay; format: cell-based; details: human whole blood with 1 μg/ml LPS, compound 3 hours, nigericin 10 μM 1 hr, IL-1β by AlphaLisa
Procedure: For systemic delivery, the ability to inhibit NLRP3 when the compounds are present within the bloodstream is of great importance. For this reason, the NLRP3 inhibitory activity of a number of compounds in human whole blood was investigated in accordance with the following protocol. • Human whole blood in Li-heparin tubes was obtained from healthy donors from a volunteer donor panel. • Plate out 80 μl of whole blood containing 1 μg/ml of LPS in 96-well, clear bottom cell culture plate (Corning #3585) • Add 10 μl compound (8 points half-log dilution with 10 μM top dose) or vehicle (DMSO 0.1% FAC) to the appropriate wells • Incubate for 3 hours at 37° C., 5% CO2 • Add 10 μl nigericin (Sigma #N7143) (10 μM FAC) to all wells • Incubate for 1 hr at 37° C., 5% CO2 • At the end of the incubation period, spin plates at 300×g for 5 mins to pellet cells and remove 20 μl of supernatant and add to 96-well v-bottom plates for IL-1β analysis (note: these plates containing the supernatants can be stored at −80° C. to be analysed at a later date) • IL-1β was measured according to the manufacturer protocol (Perkin Elmer-AlphaLisa IL-1 Kit AL220F-5000) • IC50 data is fitted to a non-linear regression equation (log inhibitor vs response-variable slope 4-parameters)

| Structure (SMILES) | IC50 (NLRP3 [1]) [nM] | IC50 (NLRP3 [2]) [nM] |
| --- | --- | --- |
| Cc1cc(C(F)(F)F)cc(O)c1-c1ccc2oc(N3Cc4cncnc4C3)nc2n1 [Example 18, 2-[2-(5,7-Dihydropyrrolo[3,4-d]pyrimidin-6-yl)oxazolo[4,5-b]pyridin-5-yl]-3-methyl-5-(trifluoromethyl)phenol] | 6.9 | 2350 |
| Cc1cc(C(F)(F)F)cc(O)c1-c1ccc2oc(N3CCc4cc(=O)[nH]cc4C3)nc2n1 [Example 19, 7-[5-[2-Hydroxy-6-methyl-4-(trifluoromethyl)phenyl]oxazolo[4,5-b]pyridin-2-yl]-2,5,6,8-tetrahydro-2,7-naphthyridin-3-one] | 11.1 | 962 |
| Cc1cc(C(F)(F)F)cc(O)c1-c1ccc2oc(N3Cc4ccc(=O)[nH]c4C3)nc2n1 [Example 20, 6-[5-[2-Hydroxy-6-methyl-4-(trifluoromethyl)phenyl]oxazolo[4,5-b]pyridin-2-yl]-5,7-dihydro-1H-pyrrolo[3,4-b]pyridin-2-one] | 4.2 | 1450 |
| Cc1cc(C(F)(F)F)cc(O)c1-c1ccc2oc(N3Cc4ccc(=O)n(C)c4C3)nc2n1 [Example 21, 6-[5-[2-Hydroxy-6-methyl-4-(trifluoromethyl)phenyl]oxazolo[4,5-b]pyridin-2-yl]-1-methyl-5,7-dihydropyrrolo[3,4-b]pyridin-2-one] | 22.3 | 1960 |
| Cc1cc(C(F)(F)F)cc(O)c1-c1ccc2oc(N3Cc4cc(=O)n(C)nc4C3)nc2n1 [Example 22, 6-[5-[2-Hydroxy-6-methyl-4-(trifluoromethyl)phenyl]oxazolo[4,5-b]pyridin-2-yl]-2-methyl-5,7-dihydropyrrolo[3,4-c]pyridazin-3-one] | 20.7 | ≥ 10000 |
| Cc1cc(C(F)(F)F)cc(O)c1-c1ccc2oc(N3CCc4ncncc4C3)nc2n1 [Example 24, 2-[2-(7,8-Dihydro-5H-pyrido[4,3-d]pyrimidin-6-yl)oxazolo[4,5-b]pyridin-5-yl]-3-methyl-5-(trifluoromethyl)phenol] | 23.6 | 192 |
| Cc1cc(Cl)cc(O)c1-c1ccc2oc(N3CCc4n[nH]cc4C3)nc2n1 [Example 25, 5-Chloro-3-methyl-2-[2-(2,4,6,7-tetrahydropyrazolo[4,3-c]pyridin-5-yl)oxazolo[4,5-b]pyridin-5-yl]phenol] | 25.6 | 142 |
| Cc1cc(C(F)F)cc(O)c1-c1ccc2oc(N3CCc4ncncc4C3)nc2n1 [Example 26, 5-(Difluoromethyl)-2-[2-(7,8-dihydro-5H-pyrido[4,3-d]pyrimidin-6-yl)oxazolo[4,5-b]pyridin-5-yl]-3-methyl-phenol] | 46.7 | 166 |
| Cc1cc(Cl)cc(O)c1-c1ccc2oc(N3CCc4cc(=O)[nH]cc4C3)nc2n1 [Example 27, 7-[5-(4-Chloro-2-hydroxy-6-methyl-phenyl)oxazolo[4,5-b]pyridin-2-yl]-2,5,6,8-tetrahydro-2,7-naphthyridin-3-one] | 52.2 | 423 |
| Cc1cc(Cl)cc(O)c1-c1cnc2oc(N3Cc4ccncc4C3)nc2n1 [Example 29, 5-Chloro-2-[2-(1,3-dihydropyrrolo[3,4-c]pyridin-2-yl)oxazolo[4,5-b]pyrazin-5-yl]-3-methyl-phenol; formic acid] | 2.1 | 35.9 |
| OCc1cc(Cl)cc(O)c1-c1cnc2oc(N3Cc4ccncc4C3)nc2n1 [Example 30, 5-Chloro-2-[2-(1,3-dihydropyrrolo[3,4-c]pyridin-2-yl)oxazolo[4,5-b]pyrazin-5-yl]-3-(hydroxymethyl)phenol] | 24.8 | 326 |
| Cc1cc(Cl)cc(O)c1-c1ccc2oc(N3CCc4ncncc4C3)nc2n1 [Example 31, 5-Chloro-2-[2-(7,8-dihydro-5H-pyrido[4,3-d]pyrimidin-6-yl)oxazolo[4,5-b]pyridin-5-yl]-3-methyl-phenol] | 17.9 | 345 |
| COc1ncc2c(n1)CCN(c1nc3nc(-c4c(C)cc(Cl)cc4O)ccc3o1)C2 [Example 32, 5-Chloro-2-[2-(2-methoxy-7,8-dihydro-5H-pyrido[4,3-d]pyrimidin-6-yl)oxazolo[4,5-b]pyridin-5-yl]-3-methyl-phenol] | 24.9 | 285 |
| Cc1cc(Cl)cc(O)c1-c1ccc2oc(N3CCc4[nH]c(=O)ncc4C3)nc2n1 [Example 36, 6-[5-(4-Chloro-2-hydroxy-6-methyl-phenyl)oxazolo[4,5-b]pyridin-2-yl]-1,5,7,8-tetrahydropyrido[4,3-d]pyrimidin-2-one] | 46.3 | 168 |
| Cc1cc(Cl)cc(O)c1-c1ccc2oc(N3CCc4[nH]c(=O)ccc4C3)nc2n1 [Example 37, 6-[5-(4-Chloro-2-hydroxy-6-methyl-phenyl)oxazolo[4,5-b]pyridin-2-yl]-1,5,7,8-tetrahydro-1,6-naphthyridin-2-one] | 71.1 | 676 |
| Cc1cc(Cl)cc(O)c1-c1ccc2oc(N3Cc4cc(=O)[nH]nc4C3)nc2n1 [Example 38, 6-[5-(4-chloro-2-hydroxy-6-methyl-phenyl)oxazolo[4,5-b]pyridin-2-yl]-5,7-dihydro-2H-pyrrolo[3,4-c]pyridazin-3-one] | 22 | 168 |
| Cc1cc(C(F)(F)F)cc(O)c1-c1cnc2oc(N3Cc4cnc(O)cc4C3)nc2n1 [Example 43, 2-[5-[2-Hydroxy-6-methyl-4-(trifluoromethyl)phenyl]oxazolo[4,5-b]pyrazin-2-yl]-1,3-dihydropyrrolo[3,4-c]pyridin-6-ol; 2,2,2-trifluoroacetic acid] | 1.7 | 128 |
